The results in this text go back to patent US20220280589A1, “METHOD FOR TREATING ALZHEIMER'S DISEASE BY REGULATING AMINO ACID LEVEL” (SHANGHAI GREEN VALLEY PHARMACEUTICAL CO., LTD., priority 2019, published 2022).

One assay concerns the target T1, SLC7A5 (Mus musculus, UniProt Q9Z127).
T1 construct: endogenous in cells; host or cells: Primary CD4+ T cells (naive/Th0 and IL-12-induced Th1) from splenocytes of C57BL/6 mice
Kind of assay: Uptake of ^13C-labeled phenylalanine by CD4^+ T cells. The settings on record: ^13C-phenylalanine 5 mmol/L, 0.5 h. In kind it is cell-based. How it is done: (k) The uptake of phenylalanine by the naïve CD4 T cells. The naïve CD4 T cells were cultured with/without ^13C-labeled phenylalanine for 0.5 h. Mass Spectrometry of phenylalanine-related compounds were tested. ^13C-Phenylalanine is administered at a concentration of 5 mmol/L, and is taken up by an L-type amino acid transporter.
Naive CD4^+ T cells were separated from the splenocytes of 8-month-old C57BL/6 female mice using the Naive CD4^+ T cell Isolation Kit (Stem Cell, Cat No. 19765) and were induced to Th1 differentiation by 20 ng/mL IL-12. After 3 days, a total of 5 ×10^5 cells/well Th1 cells and Th0 cells in 0.5 mL of RPMI-1640 medium were plated into 48-well plates. ^13C-labeled phenylalanine and 5 mM amino transporter inhibitor BCH were added into indicated wells. After 0.5 h, cells were collected and washed twice with ice-cold D-PBS. 50 μL deionized water was added and cells were lysed through freezing and thawing twice at −80° C. The cell lysate was centrifuged at 12000×g for 10 min and ^13 C-labeled phenylalanine in the supernatant was analyzed by Mass spectrometry.

Assay [1] relates to 5XFAD transgenic (Tg) mice. Description: Flow cytometry of brain homogenate immune cells (Th1, M1 microglia). In kind it is in vivo, mouse. The settings on record: 6-month-old 5XFAD mice, 50 mg/kg intraperitoneal injection every day for one month, versus vehicle.
Description: Tg mice and co-housed WT mice (corresponding WT mice generated by mating Tg mice and C57 mice) were housed in the same cage after birth. WT mice (C57) were housed in separate cages to avoid cross-transfer of microbiota. All mice were kept in a 23° C. room with a 12-hour (h) light-dark cycle. Mice were randomly assigned to different groups before treatment. For time course analysis of Tg mice, male and female Tg mice were sacrificed at 2, 3, 5, 7 and 9 months of age. The mouse brain was collected and stained for immune cell analysis and cytokine analysis. […] The brains and feces of the mice were then used for different analyses.
Mice were anesthetized, blood samples were collected into EDTA-containing tubes, and red blood cells were removed using 1×red blood lysis buffer. Before tissue collection, the brains were perfused with ice-cold PBS to avoid sampling the circulating blood immune cells, and the brains were removed, chopped into pieces and dissected according to the introduction of the Adult Brain Dissociation Kit (Miltenyi, Cat No. 130-107-677) using the gentleMACS dissociator (Miltenyi Biotec). The brain homogenate was filtered through a 70-μm cell strainer and centrifuged at 300×g for 5 min at 4° C. […] All samples were counted and adjusted to a density of 2-3×10^6/100 μL, labeled with a Live/Dead kit for 30 min, and then centrifuged at 500×g for 3 min at 4° C. […]
Another assay deals with C57 mice. Description: Intraperitoneal injection of phenylalanine and isoleucine, blood Th1 cells by flow cytometry. In kind it is in vivo, mouse. The settings on record: WT (C57) mice, intraperitoneal injection 50 mg/kg for 4 days. How it is done: (g) Blood Th1 cell changes after 4-day intraperitoneal (i.p.) injection of phenylalanine and isoleucine (n=6). ***P<0.001 by one-way ANOVA (F (2, 21)=101.8).
Tg mice and co-housed WT mice (corresponding WT mice generated by mating Tg mice and C57 mice) were housed in the same cage after birth. WT mice (C57) were housed in separate cages to avoid cross-transfer of microbiota. All mice were kept in a 23° C. room with a 12-hour (h) light-dark cycle. Mice were randomly assigned to different groups before treatment. For time course analysis of Tg mice, male and female Tg mice were sacrificed at 2, 3, 5, 7 and 9 months of age. The mouse brain was collected and stained for immune cell analysis and cytokine analysis. Before the mice were sacrificed, feces were collected for gut microbiota analysis. […] All mouse movements that occur in PhenoTyper (HomeCage) are recorded by a computerized tracking system, which calculates the time and number of entrances required to reach 80% of the performance standard (Noldus, Ethovision). […]
Mice were anesthetized, blood samples were collected into EDTA-containing tubes, and red blood cells were removed using 1×red blood lysis buffer. […] All samples were counted and adjusted to a density of 2-3×10^6/100 μL, labeled with a Live/Dead kit for 30 min, and then centrifuged at 500×g for 3 min at 4° C. […]
(In flow cytometry, cells or beads pass a laser one at a time.)

The test system of the next assay is naive CD4^+ T cells. Kind of assay: In vitro differentiation and proliferation induced by phenylalanine and isoleucine. In kind it is cell-based, mouse. Conditions: 3 days; for Th1 cell proliferation: amino acid (1 mM) added to CellTrace-stained naive CD4^+ T cell culture; for Th0 cell differentiation into Th1 cells: amino acid (1 mM) added to naive CD4^+ T cell culture. The procedure: (e) The effects of OM1 on the differentiation of naive CD4^+ T cells (Th0 cells) to Th1 cells induced by phenylalanine and isoleucine. Naive CD4^+ T cells were cultured for 3 days with/without OM1 in the presence of phenylalanine (1 mM) or isoleucine (1 mM). The frequency of Th1 (CD4^+IFN-γ^+) cells was tested by flow cytometry. The data are presented as mean±standard error of the mean (mean±sem); n=3 replicates per group. Left, *P<0.05, **P<0.01 by one-way ANOVA (F (2, 6)=15.64). Right, *P<0.05, **P<0.01 by one-way ANOVA (F (2, 6)=10.35).
(f) The effects of OM1 on the proliferation of Th1 cells induced by phenylalanine and isoleucine. The naive CD4^+ T cells were stained with CellTrace and cultured for 3 days with/without OM1 in the presence of phenylalanine (1 mM) and isoleucine (1 mM). The density of CellTrace fluorescence in Th1 (CD4^+IFN-γ^+) cells was tested by flow cytometry (see Methods). The data are presented as mean±standard error of the mean (mean±sem), n=3. *P<0.05, ***P<0.001 by one-way ANOVA (F (4, 9)=28.34).
Naive CD4^+ T cells were separated from the splenocytes of 8-month-old C57BL/6 female mice using the Naive CD4^+ T cell Isolation Kit (Stem Cell, #19765), and the cells were stained with CellTrace (Thermo Fisher, #C34557). A total of 1×10^5 cells/well in 0.2 mL of RPMI-1640 medium were plated in 96-well plates, and the culture medium was supplemented with cytokines or blocking antibodies. Th0: 10 ng/mL mIL-2; Th1:10 ng/mL mIL-2, 5000 ng/mL 11B11. Phenylalanine (final concentration, 2 mmol/L), isoleucine (final concentration, 2 mmol/L) and OM1 (final concentration, 100 μg/mL) were added into the indicated wells, respectively. After incubation at 37° C. in 5% CO2 for 5 days, cells were acquired on a BD Fortessa cytometer, and data were analyzed using FlowJo software.

SMILES strings stand for the structures. “Also recorded” adds a separate entry of the source.

T1 sequence (Q9Z127 whole entry): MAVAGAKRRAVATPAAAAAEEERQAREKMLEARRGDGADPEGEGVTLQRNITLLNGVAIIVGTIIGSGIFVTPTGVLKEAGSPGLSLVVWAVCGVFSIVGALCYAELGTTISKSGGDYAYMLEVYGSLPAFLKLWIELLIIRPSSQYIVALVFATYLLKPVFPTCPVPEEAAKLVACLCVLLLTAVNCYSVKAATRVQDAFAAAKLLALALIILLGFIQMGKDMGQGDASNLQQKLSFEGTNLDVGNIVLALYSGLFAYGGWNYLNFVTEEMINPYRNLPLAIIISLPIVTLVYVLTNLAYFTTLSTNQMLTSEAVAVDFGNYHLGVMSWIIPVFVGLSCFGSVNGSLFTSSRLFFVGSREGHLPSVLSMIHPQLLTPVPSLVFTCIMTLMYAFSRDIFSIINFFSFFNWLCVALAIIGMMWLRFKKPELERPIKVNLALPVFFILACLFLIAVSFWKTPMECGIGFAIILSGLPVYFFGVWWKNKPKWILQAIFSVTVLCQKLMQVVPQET
T1 sequence (P10852 whole entry partner): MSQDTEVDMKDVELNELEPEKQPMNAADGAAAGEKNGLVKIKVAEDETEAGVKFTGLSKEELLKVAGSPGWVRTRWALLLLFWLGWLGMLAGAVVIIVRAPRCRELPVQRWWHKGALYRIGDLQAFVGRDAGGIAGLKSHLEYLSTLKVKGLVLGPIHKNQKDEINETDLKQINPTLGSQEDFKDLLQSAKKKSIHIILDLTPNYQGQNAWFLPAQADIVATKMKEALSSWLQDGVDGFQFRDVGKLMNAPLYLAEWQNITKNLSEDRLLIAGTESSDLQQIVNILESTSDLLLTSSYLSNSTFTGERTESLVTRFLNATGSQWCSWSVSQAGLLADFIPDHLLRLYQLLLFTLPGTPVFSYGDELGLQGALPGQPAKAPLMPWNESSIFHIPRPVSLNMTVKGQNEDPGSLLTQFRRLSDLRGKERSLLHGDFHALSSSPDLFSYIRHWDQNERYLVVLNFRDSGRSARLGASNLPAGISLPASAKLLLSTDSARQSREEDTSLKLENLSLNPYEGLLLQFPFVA

With `Nc1cc(COc2c(Cl)cc(C[C@H](N)C(=O)O)cc2Cl)c2oc(-c3ccccc3)nc2c1` [JPH203], on SLC7A5, the “uptake of ^13C-labeled phenylalanine by CD4^+ T cells” value was “blocked”. Besides, the “proportion of pro-inflammatory Th1 cells in the brain” value in assay [1] is listed as “effectively inhibits the proportion of Th1 cells in the brain; also recorded: significantly downregulated the proportion of pro-inflammatory Th1 cells in the mouse brain”.

For the molecule `CC[C@H](C)[C@H](N)C(=O)O` [isoleucine], the “Th1 cell count in the blood” value in the assay on C57 mice is on record as “increased significantly”. Also, in the assay with naive CD4^+ T cells, the Th1 cell proliferation entry is “increased” and the “Th0 cell differentiation into Th1 cells” value is reported as “increased”.

For the molecule `N[C@@H](Cc1ccccc1)C(=O)O` [phenylalanine], the “Th1 cell count in the blood” value with C57 mice was “increased significantly”. For the same molecule, in the assay with naive CD4^+ T cells, the Th1 cell proliferation entry was “increased” and the “Th0 cell differentiation into Th1 cells” value is “increased”.
